These results are taken from ChEMBL document CHEMBL1125860 (J Med Chem, 1991).

What is called inhibition is the percentage by which the read-out fell short of the control. A word on the inhibition in vivo: it is the relative decrease from the control value, in per cent. As usually defined, the Inhibition is the change of the read-out against control, counted positive when it falls. As a reminder, the IC50 is the point on the concentration scale where inhibition reaches its midpoint. The term ED50 denotes the dose that gives a 50% effect, or the effect in half of the subjects.

The target in test [1] is Aldo-keto reductase family 1 member B1 (Bos taurus) (UniProt P16116). Put plainly: In vitro % decrease of aldose reductase measured in isolated partially purified bovine lens preparations at 10e-7 M concentration.
Test [2] deals with Rattus norvegicus. Nature of the test: In vivo inhibition of galactitol accumulation in diaphragm of rat at 52 mg/kg/day. The format is functional.
Test [3] has as its system Rattus norvegicus. Put plainly: In vivo inhibition of galactitol accumulation in sciatic nerves of rat at 52 mg/kg/dayC. The format is functional, organism-based. The settings on record: Sciatic nerve.
In test [4] the test system is Rattus norvegicus. Put plainly: In vivo inhibition of galactitol accumulation in diaphragm of rat at 94 mg/kg/day. The format is functional.
Test [5] concerns Rattus norvegicus. Put plainly: In vivo inhibition of galactitol accumulation in sciatic nerves of rat at 94 mg/kg/day; Not significant. The settings on record: Sciatic nerve. The format is functional, organism-based.
For test [6], the target named is Aldo-keto reductase family 1 member B1 (Bos taurus) (UniProt P16116). Put plainly: In vitro % decrease of aldose reductase was measured in isolated partially purified bovine lens preparations at 10e-7 M concentration; Not active.
For test [7], the system named is Rattus norvegicus. Nature of the test: In vivo inhibition of galactitol accumulation in sciatic nerves of rat at 22 mg/kg/day. The settings on record: Sciatic nerve. The format is functional.
In test [8] the test system is Rattus norvegicus. Nature of the test: In vivo inhibition of galactitol accumulation in diaphragm of rat at 27 mg/kg/day. The format is functional.
In test [9] the test system is Rattus norvegicus. Nature of the test: In vivo inhibition of galactitol accumulation in sciatic nerves of rat at 27 mg/kg/day. The test is classed as functional. The settings on record: Sciatic nerve.
The test system of test [10] is Rattus norvegicus. Nature of the test: In vivo inhibition of galactitol accumulation in sciatic nerves of rat at 11 mg/kg/day. The test is classed as functional. The note with it: Sciatic nerve.
The subject of test [11] is Rattus norvegicus. Nature of the test: In vivo inhibition of galactitol accumulation in diaphragm of rat at 22 mg/kg/day. The format is functional.
Test [12] relates to Rattus norvegicus. Put plainly: In vivo inhibition of galactitol accumulation in diaphragm of rat at 11 mg/kg/day. The test is classed as functional.
In test [13] the test system is Rattus norvegicus. Put plainly: In vivo inhibition of galactitol accumulation in sciatic nerves of rat at 97 mg/kg/day. The test is classed as functional. The note with it: Sciatic nerve.
The species named for test [14] is Rattus norvegicus. Put plainly: (§1) In vitro inhibition of sorbitol accumulation was measured in rat sciatic nerves incubated in the presence of 50 mM glucose at 10e-5 M concentration. The test is classed as functional, Sciatic nerve.
Test [15] is filed under the species Rattus norvegicus. Put plainly: (§2) In vitro inhibition of sorbitol accumulation was measured in rat sciatic nerves incubated in the presence of 50 mM glucose at 10e-6 M concentration. The format is functional, Sciatic nerve.
Test [16] has as its system Rattus norvegicus. Put plainly: In vivo inhibition of galactitol accumulation in diaphragm of rat at 97 mg/kg/day. The format is functional.
Test [17] has as its system Rattus norvegicus. Put plainly: In vivo inhibition of galactitol accumulation in sciatic nerves of rat at 144 mg/kg/day. The test is classed as functional. The settings on record: Sciatic nerve.
In test [18] the test system is Rattus norvegicus. Put plainly: In vivo inhibition of galactitol accumulation in diaphragm of rat at 144 mg/kg/day. The test is classed as functional.
Test [19] relates to Rattus norvegicus. Put plainly: In vivo inhibition of galactitol accumulation in sciatic nerves of rat at 25 mg/kg/day. The test is classed as functional. The note with it: Sciatic nerve.
Test [20] concerns Rattus norvegicus. Nature of the test: In vivo inhibition of galactitol accumulation in diaphragm of rat at 25 mg/kg/day; […]. The format is functional, organism-based.
For test [21], the system named is Rattus norvegicus. Put plainly: In vivo inhibition of galactitol accumulation in diaphragm of rat at 53 mg/kg/day. The test is classed as functional.
Test [22] relates to Rattus norvegicus. Put plainly: In vivo inhibition of galactitol accumulation in diaphragm of rat at 75 mg/kg/day. The format is functional.
For test [23], the system named is Rattus norvegicus. Nature of the test: In vivo inhibition of galactitol accumulation in sciatic nerves of rat at 53 mg/kg/day. The test is classed as functional. The note with it: Sciatic nerve.
For test [24], the system named is Rattus norvegicus. Put plainly: In vivo inhibition of galactitol accumulation in sciatic nerves of rat at 75 mg/kg/day. The settings on record: Sciatic nerve. The test is classed as functional.
Test [25] deals with Rattus norvegicus. Put plainly: In vivo inhibition of galactitol accumulation in sciatic nerves of rat at 44 mg/kg/day; Not significant. The format is functional, organism-based. The note with it: Sciatic nerve.
Test [26] concerns Rattus norvegicus. Put plainly: In vivo inhibition of galactitol accumulation in diaphragm of rat at 144 mg/kg. The format is functional.
Test [27] relates to Rattus norvegicus. Nature of the test: In vivo inhibition of galactitol accumulation in sciatic nerves of rat at 16 mg/kg/day; Not significant. The test is classed as functional, organism-based. The note with it: Sciatic nerve.
Test [28] relates to Rattus norvegicus. Nature of the test: In vivo inhibition of galactitol accumulation in sciatic nerves of rat at 11 mg/kg/day; Not significant. The note with it: Sciatic nerve. The format is functional, organism-based.
For test [29], the system named is Rattus norvegicus. Put plainly: In vivo inhibition of galactitol accumulation in diaphragm of rat at 16 mg/kg/day. The test is classed as functional.
For test [30], the species on record is Rattus norvegicus. The test is described as §1. The format is functional. The note with it: Sciatic nerve.
Test [31] is filed under the species Rattus norvegicus. The description is as §2. The test is classed as functional. The note with it: Sciatic nerve.
Test [32] concerns Rattus norvegicus. Nature of the test: Effective dose of aldose reductase was evaluated by measuring galactitol accumulation in sciatic nerves of rat at 4 mg/kg/day. The test is classed as functional. The settings on record: Sciatic nerve.
For test [33], the system named is Rattus norvegicus. Put plainly: In vivo inhibition of galactitol accumulation in diaphragm of rat at 4 mg/kg/day. The format is functional.
Test [34] has as its system Rattus norvegicus. Put plainly: In vivo inhibition of galactitol accumulation in sciatic nerves of rat at 4 mg/kg/day. The format is functional. The note with it: Sciatic nerve.

Calls of active or inactive are those of the source. The rule behind the calls is not given here.

In test [1], `COc1ccc2c(C(=O)N(C)CC(=O)O)ccc(Cc3ccccc3)c2c1Br` had an inhibition of 80%. The compound further displayed an inhibition in vivo at 52 mg/kg/day in [2] of 34%. Moreover, the inhibition entry in test [3] is “inactive”.

Take `CCCCc1ccc2c(C(F)(F)F)c(OC)ccc2c1C(=O)N(C)CC(=O)O`: the inhibition in [1] is 23%. The same compound displayed an inhibition in vivo at 94 mg/kg/day in test [4] of 37%. For the same compound, the inhibition result in test [5] is “inactive”.

Turning to `COC(=O)CN(C)C(=O)c1c(F)ccc2c(C(F)(F)F)c(OC)ccc12`, in test [6], the inhibition result is “inactive”. Also, the inhibition in vivo at 22 mg/kg/day in [7] stood at 80%; in [11], 55%. For the same compound, the inhibition in vivo at 27 mg/kg/day in test [8] and in test [9] was 48% throughout. In addition, the inhibition in vivo at 11 mg/kg/day was determined as 29% in [10] and 34% in test [12].

The compound `COc1ccc2c(C(=O)N(C)CC(=O)O)c(Br)ccc2c1C(F)(F)F` showed an inhibition in test [1] of 63%. Moreover, the inhibition in vivo at 97 mg/kg/day in test [13] is 44%; in test [16] it was 84%. Further, the results for the Inhibition in test [14] and in [15] were 67% and 37%, respectively.

The compound `COc1ccc2c(C(=S)N(C)CC(=O)O)cc(Cc3ccccc3)cc2c1Br` yielded an inhibition in test [1] of 84%. Also, the values for the inhibition in vivo at 144 mg/kg/day in test [17] and in test [18] were 46% and 84%, respectively. Also, the Inhibition came out at 78% in test [14] and 48% in test [15].

In turn, `COc1ccc2c(C(=O)N(C)CC(=O)O)cccc2c1C(F)(F)F` returned an inhibition in vivo at 25 mg/kg/day in test [19] of 33%. Also, the inhibition entry in test [20] was “inactive”. Moreover, the results for the inhibition in vivo at 53 mg/kg/day in test [21] and in [23] were 94% and 93%, respectively. Moreover, the inhibition in vivo at 75 mg/kg/day in test [22] stood at 27%; in test [24] it was 56%. Further, the Inhibition in test [14] turned out to be 74%; in [15], 27%.

Consider `COc1ccc2c(C(=O)N(C)CC(=O)O)cc(Cc3ccccc3)cc2c1Br`, for which the inhibition in [1] turned out to be 74%. Also, the inhibition result in [25] was “inactive”. In test [26], at 144 mg/kg the inhibition in vivo was 24%. The Inhibition in [14] is on record as 72%; in [15] it was 44%.

For `COC(=O)N(CC(N)=O)C(=O)c1c(F)ccc2c(C(F)(F)F)c(OC)ccc12`, the inhibition entry in test [6], in test [27] and in test [28] was “inactive” in each case. Further, in [29], the inhibition in vivo at 16 mg/kg/day was determined as 33%. Also, in test [12], the inhibition in vivo at 11 mg/kg/day turned out to be 28%. In addition, the Inhibition is recorded as 34% in test [14] and 4% in test [15].

Consider `O=C1NC(=O)[C@@]2(CCOc3ccc(F)cc32)N1` [SORBINIL], for which the IC50 in [30] and in test [31] was 2.2 µM each time. The compound further displayed a median effective dose (ED50) in test [32] of 4.2 mg/kg. Further, the inhibition in vivo at 4 mg/kg/day in test [33] came to 69%; in test [34], 55%. In addition, the results for the Inhibition in test [14] and in [15] were 96% and 27%, respectively.
